Data: ChEMBL document CHEMBL1201862, “PubChem BioAssay data set” (2004)
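48-hour exposure; five concentrations; linearly interpolated endpoints. GI50 is the concentration that inhibits growth by half.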 Calls of active or inactive are those of the source. No stated cut-off is given here; in the data, active = GI50 up to about 1.1 µM and inactive = higher.

Tests used:
Assay in all cases: growth of human tumour cells (NCI), 48 h
COLO 205 = system: COLO 205
OVCAR-5 = system: OVCAR-5
EKVX = system: EKVX
U-251 = system: U-251
SR = system: SR
SK-MEL-2 = system: SK-MEL-2
ACHN = system: ACHN
HL-60 = system: HL-60
SK-OV-3 = system: SK-OV-3
IGROV-1 = system: IGROV-1
SF-268 = system: SF-268
SNB-19 = system: SNB-19
M14 = system: M14
NCI-H226 = system: NCI-H226
CCRF-CEM = system: CCRF-CEM
NCI-H522 = system: NCI-H522

| Structure (SMILES) | GI50 (COLO 205) | GI50 (OVCAR-5) | GI50 (EKVX) | GI50 (U-251) | GI50 (SR) | GI50 (SK-MEL-2) | GI50 (ACHN) | GI50 (HL-60) | GI50 (SK-OV-3) | GI50 (IGROV-1) | GI50 (SF-268) | GI50 (SNB-19) | GI50 (M14) | GI50 (NCI-H226) | GI50 (CCRF-CEM) | GI50 (NCI-H522) |
| --- | --- | --- | --- | --- | --- | --- | --- | --- | --- | --- | --- | --- | --- | --- | --- | --- |
| Nc1nc(CCC(=O)Nc2cccc(C(F)(F)F)c2)cc(-c2ccc3ccccc3c2)n1 | > 100 µM (inactive) | > 100 µM (inactive) | > 100 µM (inactive) | > 100 µM (inactive) | > 100 µM (inactive) | > 100 µM (inactive) | > 100 µM (inactive) | > 100 µM (inactive) | > 100 µM (inactive) | > 100 µM (inactive) | > 100 µM (inactive) | > 100 µM (inactive) | > 100 µM (inactive) | > 100 µM (inactive) | > 100 µM (inactive) | > 100 µM (inactive) |
| CO/C=C(\Br)c1ccc2c(c1)OCO2 |  | > 100 µM (inactive) | > 100 µM (inactive) | > 100 µM (inactive) | > 100 µM (inactive) | > 100 µM (inactive) | > 100 µM (inactive) | > 100 µM (inactive) | > 100 µM (inactive) | > 100 µM (inactive) | > 100 µM (inactive) | > 100 µM (inactive) | > 100 µM (inactive) | > 100 µM (inactive) | > 100 µM (inactive) | > 100 µM (inactive) |
| Cc1c(C(=O)CSc2nc3ccccc3c(=O)n2-c2ccccc2)c(=O)n(-c2ccccc2)n1C | > 100 µM (inactive) | > 100 µM (inactive) |  | 22.4 µM (inactive) | 82.2 µM (inactive) | > 100 µM (inactive) | 35.2 µM (inactive) | > 100 µM (inactive) | 19.3 µM (inactive) | > 100 µM (inactive) | > 100 µM (inactive) | 44.4 µM (inactive) | 94.2 µM (inactive) | 23.3 µM (inactive) | > 100 µM (inactive) | 27.2 µM (inactive) |
| COC1(OC)CCC2C1C1CCC(OC)(OC)C21 (stereo not given) | > 50 µM (inactive) | > 50 µM (inactive) | > 50 µM (inactive) | > 50 µM (inactive) |  | > 50 µM (inactive) | > 50 µM (inactive) | > 50 µM (inactive) | > 50 µM (inactive) | > 50 µM (inactive) | > 50 µM (inactive) | > 50 µM (inactive) | > 50 µM (inactive) | > 50 µM (inactive) | > 50 µM (inactive) | > 50 µM (inactive) |
| O=c1cc(-c2ccccc2)oc2cc(OCC(O)COc3ccc4c(=O)cc(-c5ccccc5)oc4c3)ccc12 |  | > 100 µM (inactive) | > 100 µM (inactive) | 20.8 µM (inactive) |  | 21.5 µM (inactive) |  | 23 µM (inactive) | 16.8 µM (inactive) | > 100 µM (inactive) | 14.6 µM (inactive) | 20.2 µM (inactive) | > 100 µM (inactive) |  | 33 µM (inactive) | 28.4 µM (inactive) |
| COC12CCC(C(C(=O)c3ccccc3)=C1C(=O)c1ccccc1)C(O)C2 (stereo not given) | > 100 µM (inactive) |  | > 100 µM (inactive) |  | > 100 µM (inactive) | > 100 µM (inactive) |  | > 100 µM (inactive) | > 100 µM (inactive) | > 100 µM (inactive) | > 100 µM (inactive) | > 100 µM (inactive) | > 100 µM (inactive) | > 100 µM (inactive) | > 100 µM (inactive) | > 100 µM (inactive) |
| C=CCCCCn1c2ccccc2c2c(C)c3c[n+](C)ccc3c(C)c21 | 0.25 µM (active) | 1.07 µM (active) |  | 0.197 µM (active) | 0.284 µM (active) | 0.396 µM (active) | 2.68 µM (inactive) | 0.171 µM (active) | 1.2 µM (inactive) | 0.252 µM (active) | 0.366 µM (active) | 0.412 µM (active) | 0.979 µM (active) | 0.212 µM (active) | 0.335 µM (active) | 0.176 µM (active) |
| COC1CCC(OC)C(C2(C3CC(OC)CCC3OC)OC(=O)c3ccccc32)C1 (stereo not given) | 28.8 µM (inactive) | > 100 µM (inactive) | 60.8 µM (inactive) | 93.8 µM (inactive) | 9.16 µM (inactive) | 93.8 µM (inactive) | > 100 µM (inactive) | 13.7 µM (inactive) | > 100 µM (inactive) | 68.4 µM (inactive) | > 100 µM (inactive) | > 100 µM (inactive) | 64.7 µM (inactive) | 86.7 µM (inactive) |  | 6.85 µM (inactive) |
| COC1=CC(=O)C2C(C1=O)[C@@H]1c3ccccc3C[C@H]21 (stereo not given in full) | > 100 µM (inactive) | > 100 µM (inactive) | > 100 µM (inactive) | > 100 µM (inactive) | > 100 µM (inactive) | > 100 µM (inactive) | > 100 µM (inactive) | > 100 µM (inactive) | > 100 µM (inactive) | > 100 µM (inactive) | > 100 µM (inactive) | > 100 µM (inactive) | > 100 µM (inactive) |  | > 100 µM (inactive) | > 100 µM (inactive) |
| c1ccc2c(C3NCCc4nc[nH]c43)cccc2c1 (stereo not given) | > 100 µM (inactive) | > 100 µM (inactive) |  | > 100 µM (inactive) | > 100 µM (inactive) | > 100 µM (inactive) | > 100 µM (inactive) |  | > 100 µM (inactive) | > 100 µM (inactive) | > 100 µM (inactive) |  | > 100 µM (inactive) | > 100 µM (inactive) | > 100 µM (inactive) | 98.4 µM (inactive) |
| CC(C)CCC[C@@H](C)C1CCC2[C@@H]3CC=C4C[C@@H](OC(=O)CCC(=O)NCC[N+](C)(C)CCCS(=O)(=O)[O-])CC[C@]4(C)C3CC[C@@]21C (stereo not given in full) | 19.6 µM (inactive) |  | 29.2 µM (inactive) | 18.3 µM (inactive) |  | 18.8 µM (inactive) | 23.9 µM (inactive) | 18.8 µM (inactive) | > 100 µM (inactive) |  | 19.3 µM (inactive) | 24.3 µM (inactive) | 19.7 µM (inactive) | 27.4 µM (inactive) | 23.5 µM (inactive) | 26.2 µM (inactive) |
| CCCCSC1CCSc2c1ccc1ccccc21 (stereo not given) | > 100 µM (inactive) | 42 µM (inactive) |  | > 100 µM (inactive) | 72.3 µM (inactive) | > 100 µM (inactive) |  | 93.1 µM (inactive) | > 100 µM (inactive) | > 100 µM (inactive) |  | > 100 µM (inactive) | 74.1 µM (inactive) |  |  |  |
| N#C/C(=C\c1cc(O)cc(O)c1)C(N)=O | > 100 µM (inactive) | > 100 µM (inactive) | > 100 µM (inactive) | > 100 µM (inactive) |  | > 100 µM (inactive) | > 100 µM (inactive) | > 10 µM (inactive) | > 100 µM (inactive) | > 100 µM (inactive) | > 100 µM (inactive) | > 100 µM (inactive) | > 100 µM (inactive) | > 100 µM (inactive) | > 100 µM (inactive) | 21 µM (inactive) |
| CC(=O)OC1CC2Oc3ccc(C)cc3C(C)(O2)C1=O (stereo not given) | > 100 µM (inactive) |  | > 100 µM (inactive) | > 100 µM (inactive) |  |  | > 100 µM (inactive) | > 100 µM (inactive) | > 100 µM (inactive) | > 100 µM (inactive) |  | > 100 µM (inactive) | > 100 µM (inactive) | > 100 µM (inactive) | > 100 µM (inactive) | > 100 µM (inactive) |
| CCOC(=O)C1S/C(=N\c2cccc(Cl)c2C)N=C1C (stereo not given) | 21.4 µM (inactive) | 18.7 µM (inactive) | > 10 µM (inactive) | 15.1 µM (inactive) | 24.7 µM (inactive) | 19.5 µM (inactive) | 25.3 µM (inactive) | 21.6 µM (inactive) |  | 31.3 µM (inactive) | 30.5 µM (inactive) | 31.4 µM (inactive) |  | 32.8 µM (inactive) |  | 18.8 µM (inactive) |
| CC12CCC(=O)N1c1cc([N+](=O)[O-])ccc1N2 (stereo not given) | > 100 µM (inactive) |  | > 100 µM (inactive) | > 100 µM (inactive) | 76 µM (inactive) | > 100 µM (inactive) | > 100 µM (inactive) | > 100 µM (inactive) | > 100 µM (inactive) | > 100 µM (inactive) | > 100 µM (inactive) | > 100 µM (inactive) | > 100 µM (inactive) | > 100 µM (inactive) | > 100 µM (inactive) | > 100 µM (inactive) |
| CCCCN(CCCC)C(=O)C(=O)CC(=O)c1ccc(Br)cc1 | > 100 µM (inactive) | > 100 µM (inactive) | > 100 µM (inactive) | > 100 µM (inactive) |  | > 100 µM (inactive) | > 100 µM (inactive) | > 100 µM (inactive) | > 100 µM (inactive) | > 100 µM (inactive) | > 100 µM (inactive) | > 100 µM (inactive) | > 100 µM (inactive) | > 100 µM (inactive) | > 100 µM (inactive) | > 100 µM (inactive) |
| NC(=O)C(N)=O | > 100 µM (inactive) | > 100 µM (inactive) | > 100 µM (inactive) | > 100 µM (inactive) | > 100 µM (inactive) | > 100 µM (inactive) | > 100 µM (inactive) | > 100 µM (inactive) | > 100 µM (inactive) |  | > 100 µM (inactive) | > 100 µM (inactive) | > 100 µM (inactive) |  | > 100 µM (inactive) | > 100 µM (inactive) |
| CCc1nnc(S)n1/N=C/c1ccc(-c2ccc([N+](=O)[O-])cc2)o1 | > 100 µM (inactive) | > 100 µM (inactive) |  | > 100 µM (inactive) | > 100 µM (inactive) | > 100 µM (inactive) | > 100 µM (inactive) | > 100 µM (inactive) | > 100 µM (inactive) | > 100 µM (inactive) | > 100 µM (inactive) | > 100 µM (inactive) | > 100 µM (inactive) | > 100 µM (inactive) |  | > 100 µM (inactive) |
